Source: patent US20100267561A1, “HERBICIDAL PYRIDAZINONE DERIVATIVES” (priority 2007, published 2010)

Legend:
Assay type in all cases: in vivo
[1] = tested on: umbrella sedge (Cyperus difformis); assay: Test B flooded paddy test plant response
From the text: (§1) Plant species in the flooded paddy test consisted of rice (Oryza sativa), umbrella sedge (Cyperus difformis), ducksalad (Heteranthera limosa) and barnyardgrass (Echinochloa crus-galli) grown to the 2-leaf stage for testing. At time of treatment, test pots were flooded to 3 cm above the soil surface, treated by application of test compounds directly to the paddy water, and then maintained at that water depth for the duration of the test. Treated plants and controls were maintained in a greenhouse for 13 to 15 days, after which time all species were compared to controls and visually evaluated. Plant response ratings, summarized in Table B, are based on a scale of 0 to 100 where 0 is no effect and 100 is complete control. A dash (-) response means no test result.

[2] = tested on: ducksalad (Heteranthera limosa); assay: Test B flooded paddy test plant response
From the text: as §1

[3] = tested on: rice (Oryza sativa); assay: Test B flooded paddy test plant response
From the text: as §1

[4] = tested on: barnyardgrass (Echinochloa crus-galli); assay: Test B flooded paddy test plant response
From the text: as §1

[5] = tested on: large crabgrass (Digitaria sanguinalis); assay: Test A pre-/postemergence plant response
From the text: (§2) Seeds of species selected from barnyardgrass (Echinochloa crus-galli), large crabgrass (Digitaria sanguinalis), giant foxtail (Setaria faberi), blackgrass (Alopecurus myosuroides), canarygrass (Phalaris minor), morningglory (Ipomoea coccinea), pigweed (Amaranthus retroflexus), velvetleaf (Abutilon theophrasti), wheat (Triticum aestivum), and corn (Zea mays) were planted into a blend of loam soil and sand and treated preemergence with a directed soil spray using test chemicals formulated in a non-phytotoxic solvent mixture which included a surfactant. At the same time these species were also treated with postemergence applications of test chemicals formulated in the same manner.
(§3) Plants ranged in height from 2 to 10 cm and were in the one- to two-leaf stage for the postemergence treatment. Treated plants and untreated controls were maintained in a greenhouse for approximately 10 days, after which time all treated plants were compared to untreated controls and visually evaluated for injury. Plant response ratings, summarized in Table A, are based on a 0 to 100 scale where 0 is no effect and 100 is complete control. A dash (-) response means no test results.

[6] = tested on: velvetleaf (Abutilon theophrasti); assay: Test A pre-/postemergence plant response
From the text: as §2, §3

[7] = tested on: giant foxtail (Setaria faberi); assay: Test A pre-/postemergence plant response
From the text: as §2, §3

[8] = tested on: pigweed (Amaranthus retroflexus); assay: Test A pre-/postemergence plant response
From the text: as §2, §3

[9] = tested on: wheat (Triticum aestivum); assay: Test A pre-/postemergence plant response
From the text: as §2, §3

[10] = tested on: morningglory (Ipomoea coccinea); assay: Test A pre-/postemergence plant response
From the text: as §2, §3

[11] = tested on: corn (Zea mays); assay: Test A pre-/postemergence plant response
From the text: as §2, §3

[12] = tested on: barnyardgrass (Echinochloa crus-galli); assay: Test A pre-/postemergence plant response
From the text: as §2, §3

[13] = Flood (flooded paddy test), 62 g ai/ha, scale 0 to 100, 0 no effect, 100 complete control
[14] = Flood (flooded paddy test), 125 g ai/ha, scale 0 to 100, 0 no effect, 100 complete control
[15] = Flood (flooded paddy test), 250 g ai/ha, scale 0 to 100, 0 no effect, 100 complete control
[16] = Flood, 31 g ai/ha, scale 0 to 100
[17] = Postemergence, 125 g ai/ha, 0 to 100 scale, 0 no effect, 100 complete control
[18] = Postemergence, 500 g ai/ha, 0 to 100 scale, 0 no effect, 100 complete control
[19] = Preemergence, 125 g ai/ha, 0 to 100 scale (0 no effect, 100 complete control)
[20] = Preemergence, 500 g ai/ha, 0 to 100 scale (0 no effect, 100 complete control)
[21] = Postemergence, 31 g ai/ha, 0 to 100 scale (0 no effect, 100 complete control)
[22] = Preemergence, 31 g ai/ha, 0 to 100 scale, 0 is no effect, 100 is complete control

Cc1cc(-c2ccc(OC(F)(F)F)cc2)nn1-c1c(OC(=O)OC(C)C)cnn(C)c1=O [Compound 13]
Plant response rating, Sedge, Umbrella [1, 13]: 0 | Plant response rating, Sedge, Umbrella [1, 14]: 0 | Plant response rating, Sedge, Umbrella [1, 15]: 0 | Plant response rating, Sedge, Umbrella [1, 16]: 0 | Plant response rating, Ducksalad [2, 13]: 0 | Plant response rating, Ducksalad [2, 14]: 0 | Plant response rating, Ducksalad [2, 15]: 0 | Plant response rating, Ducksalad [2, 16]: 0 | Plant response rating, Rice [3, 13]: 0 | Plant response rating, Rice [3, 14]: 0 | Plant response rating, Rice [3, 15]: 0 | Plant response rating, Rice [3, 16]: 0 | Plant response rating, Barnyardgrass [4, 13]: 0 | Plant response rating, Barnyardgrass [4, 14]: 0 | Plant response rating, Barnyardgrass [4, 15]: 0 | Plant response rating, Barnyardgrass [4, 16]: 0 | Plant response rating, Crabgrass, Large [5, 17]: 20 | Plant response rating, Crabgrass, Large [5, 18]: 80 | Plant response rating, Crabgrass, Large [5, 19]: 60 | Plant response rating, Crabgrass, Large [5, 20]: 90 | Plant response rating, Velvetleaf [6, 17]: 0 | Plant response rating, Velvetleaf [6, 18]: 0 | Plant response rating, Velvetleaf [6, 19]: 0 | Plant response rating, Velvetleaf [6, 20]: 20 | Plant response rating, Foxtail, Giant [7, 17]: 70 | Plant response rating, Foxtail, Giant [7, 18]: 80 | Plant response rating, Foxtail, Giant [7, 19]: 70 | Plant response rating, Foxtail, Giant [7, 20]: 100 | Plant response rating, Pigweed [8, 17]: 0 | Plant response rating, Pigweed [8, 18]: 0 | Plant response rating, Pigweed [8, 19]: 0 | Plant response rating, Pigweed [8, 20]: 0 | Plant response rating, Wheat [9, 17]: 50 | Plant response rating, Wheat [9, 18]: 60 | Plant response rating, Wheat [9, 19]: 20 | Plant response rating, Wheat [9, 20]: 70 | Plant response rating, Morningglory [10, 17]: 0 | Plant response rating, Morningglory [10, 18]: 0 | Plant response rating, Morningglory [10, 19]: 0 | Plant response rating, Morningglory [10, 20]: 0 | Plant response rating, Corn [11, 17]: 30 | Plant response rating, Corn [11, 18]: 60 | Plant response rating, Corn [11, 19]: 20 | Plant response rating, Corn [11, 20]: 70 | Plant response rating, Barnyardgrass [12, 17]: 50 | Plant response rating, Barnyardgrass [12, 18]: 90 | Plant response rating, Barnyardgrass [12, 19]: 60 | Plant response rating, Barnyardgrass [12, 20]: 100

COc1ccc(-c2cc(C)n(-c3c(O)cnn(C)c3=O)n2)cc1 [Compound 62]
Plant response rating, Sedge, Umbrella [1, 13]: 0 | Plant response rating, Sedge, Umbrella [1, 14]: 0 | Plant response rating, Sedge, Umbrella [1, 15]: 0 | Plant response rating, Sedge, Umbrella [1, 16]: 0 | Plant response rating, Ducksalad [2, 13]: 0 | Plant response rating, Ducksalad [2, 14]: 0 | Plant response rating, Ducksalad [2, 15]: 0 | Plant response rating, Ducksalad [2, 16]: 0 | Plant response rating, Rice [3, 13]: 0 | Plant response rating, Rice [3, 14]: 0 | Plant response rating, Rice [3, 15]: 0 | Plant response rating, Rice [3, 16]: 0 | Plant response rating, Barnyardgrass [4, 13]: 0 | Plant response rating, Barnyardgrass [4, 14]: 0 | Plant response rating, Barnyardgrass [4, 15]: 0 | Plant response rating, Barnyardgrass [4, 16]: 0 | Plant response rating, Crabgrass, Large [5, 17]: 50 | Plant response rating, Crabgrass, Large [5, 18]: 90 | Plant response rating, Crabgrass, Large [5, 19]: 20 | Plant response rating, Crabgrass, Large [5, 20]: 60 | Plant response rating, Velvetleaf [6, 17]: 0 | Plant response rating, Velvetleaf [6, 18]: 0 | Plant response rating, Velvetleaf [6, 19]: 0 | Plant response rating, Velvetleaf [6, 20]: 0 | Plant response rating, Foxtail, Giant [7, 17]: 40 | Plant response rating, Foxtail, Giant [7, 18]: 60 | Plant response rating, Foxtail, Giant [7, 19]: 0 | Plant response rating, Foxtail, Giant [7, 20]: 30 | Plant response rating, Pigweed [8, 17]: 0 | Plant response rating, Pigweed [8, 18]: 0 | Plant response rating, Pigweed [8, 19]: 0 | Plant response rating, Pigweed [8, 20]: 0 | Plant response rating, Wheat [9, 17]: 0 | Plant response rating, Wheat [9, 18]: 20 | Plant response rating, Wheat [9, 19]: 0 | Plant response rating, Wheat [9, 20]: 0 | Plant response rating, Morningglory [10, 17]: 0 | Plant response rating, Morningglory [10, 18]: 0 | Plant response rating, Morningglory [10, 19]: 0 | Plant response rating, Morningglory [10, 20]: 0 | Plant response rating, Corn [11, 17]: 0 | Plant response rating, Corn [11, 18]: 40 | Plant response rating, Corn [11, 19]: 0 | Plant response rating, Corn [11, 20]: 20 | Plant response rating, Barnyardgrass [12, 17]: 40 | Plant response rating, Barnyardgrass [12, 18]: 100 | Plant response rating, Barnyardgrass [12, 19]: 10 | Plant response rating, Barnyardgrass [12, 20]: 90

CCc1cc(-c2ccc(Cl)s2)nn1-c1c(O)cnn(C)c1=O [Compound 63]
Plant response rating, Sedge, Umbrella [1, 13]: 0 | Plant response rating, Sedge, Umbrella [1, 14]: 0 | Plant response rating, Sedge, Umbrella [1, 15]: 0 | Plant response rating, Sedge, Umbrella [1, 16]: 0 | Plant response rating, Ducksalad [2, 13]: 0 | Plant response rating, Ducksalad [2, 14]: 0 | Plant response rating, Ducksalad [2, 15]: 0 | Plant response rating, Ducksalad [2, 16]: 0 | Plant response rating, Rice [3, 13]: 0 | Plant response rating, Rice [3, 14]: 0 | Plant response rating, Rice [3, 15]: 0 | Plant response rating, Rice [3, 16]: 0 | Plant response rating, Barnyardgrass [4, 13]: 0 | Plant response rating, Barnyardgrass [4, 14]: 0 | Plant response rating, Barnyardgrass [4, 15]: 0 | Plant response rating, Barnyardgrass [4, 16]: 0 | Plant response rating, Crabgrass, Large [5, 21]: 10 | Plant response rating, Crabgrass, Large [5, 17]: 10 | Plant response rating, Crabgrass, Large [5, 22]: 0 | Plant response rating, Crabgrass, Large [5, 19]: 0 | Plant response rating, Velvetleaf [6, 21]: 0 | Plant response rating, Velvetleaf [6, 17]: 0 | Plant response rating, Velvetleaf [6, 22]: 0 | Plant response rating, Velvetleaf [6, 19]: 0 | Plant response rating, Foxtail, Giant [7, 21]: 0 | Plant response rating, Foxtail, Giant [7, 17]: 60 | Plant response rating, Foxtail, Giant [7, 22]: 0 | Plant response rating, Foxtail, Giant [7, 19]: 0 | Plant response rating, Pigweed [8, 21]: 0 | Plant response rating, Pigweed [8, 17]: 0 | Plant response rating, Pigweed [8, 22]: 0 | Plant response rating, Pigweed [8, 19]: 0 | Plant response rating, Wheat [9, 21]: 0 | Plant response rating, Wheat [9, 17]: 20 | Plant response rating, Wheat [9, 22]: 0 | Plant response rating, Wheat [9, 19]: 0 | Plant response rating, Morningglory [10, 21]: 0 | Plant response rating, Morningglory [10, 17]: 0 | Plant response rating, Morningglory [10, 22]: 0 | Plant response rating, Morningglory [10, 19]: 0 | Plant response rating, Corn [11, 21]: 0 | Plant response rating, Corn [11, 17]: 30 | Plant response rating, Corn [11, 22]: 0 | Plant response rating, Corn [11, 19]: 0 | Plant response rating, Barnyardgrass [12, 21]: 0 | Plant response rating, Barnyardgrass [12, 17]: 20 | Plant response rating, Barnyardgrass [12, 22]: 0 | Plant response rating, Barnyardgrass [12, 19]: 10
